From article PMC5573954 (Hippocampus, 2017)
pEC50, pIC50: −log10 of the molar value. Read-outs that look alike come from different tables or passages of the source.

Legend:
hM4 = molecular target: T1, hM4 (Homo sapiens, UniProt P08173); assay: GloSensor cAMP functional assay, HEK293 cells stably expressing hM4; conditions: for selectivity for hM4 over hM2 (fold shift of PAM EC50): hM2 EC50 versus hM4 EC50, PAM mode
T1 sequence (P08173 1-479): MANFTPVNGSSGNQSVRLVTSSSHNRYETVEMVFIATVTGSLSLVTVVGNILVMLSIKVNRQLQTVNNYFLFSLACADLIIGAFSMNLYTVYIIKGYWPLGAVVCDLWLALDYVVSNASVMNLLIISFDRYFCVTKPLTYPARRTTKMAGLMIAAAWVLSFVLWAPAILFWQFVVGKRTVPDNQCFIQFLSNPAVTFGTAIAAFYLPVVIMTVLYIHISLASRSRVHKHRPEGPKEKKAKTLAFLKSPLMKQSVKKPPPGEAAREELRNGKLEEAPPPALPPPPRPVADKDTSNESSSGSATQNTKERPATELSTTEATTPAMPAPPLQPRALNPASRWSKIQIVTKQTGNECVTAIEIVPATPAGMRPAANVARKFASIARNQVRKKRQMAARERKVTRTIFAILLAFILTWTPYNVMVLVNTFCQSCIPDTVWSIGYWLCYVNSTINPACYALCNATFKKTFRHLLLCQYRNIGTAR

[1] = system: spontaneous firing rates of CA1 neurons
[2] = system: SC‐evoked EPSCs in CA1 pyramidal neurons; assay type: cell-based, rat
CA1 pyramidal neurons = assay: Whole‐cell current step evoked firing of CA1 pyramidal neurons; assay type: cell-based, rat
[3] = system: SC‐evoked synaptic field potentials in CA1 of hippocampal slices; assay: Extracellular field potentials evoked by SC stimulation, hippocampal slices; conditions: from fitted dose–response curve, Figure 2a
[4] = system: TA‐evoked EPSCs in CA1 pyramidal neurons; assay type: cell-based, rat
hM1 = molecular target: T2, hM1 (Homo sapiens, UniProt P11229); assay: FLIPR Ca2+ functional assay, CHO K1 cells stably expressing hM1; assay type: cell-based
T2 sequence (P11229 1-460): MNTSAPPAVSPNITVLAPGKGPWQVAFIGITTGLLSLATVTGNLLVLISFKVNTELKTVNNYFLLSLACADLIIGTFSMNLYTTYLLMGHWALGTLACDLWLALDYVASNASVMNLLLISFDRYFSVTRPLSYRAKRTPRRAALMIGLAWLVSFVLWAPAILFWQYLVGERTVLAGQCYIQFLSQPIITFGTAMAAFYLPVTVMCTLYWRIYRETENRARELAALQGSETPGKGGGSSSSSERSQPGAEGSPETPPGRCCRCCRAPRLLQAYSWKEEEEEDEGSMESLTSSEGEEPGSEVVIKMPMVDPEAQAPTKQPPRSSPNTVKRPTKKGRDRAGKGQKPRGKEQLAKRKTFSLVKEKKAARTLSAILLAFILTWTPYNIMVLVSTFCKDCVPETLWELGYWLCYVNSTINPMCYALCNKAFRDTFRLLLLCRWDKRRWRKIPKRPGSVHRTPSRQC

[5] = system: putative PV+ CA1 interneurons; assay: Whole‐cell current step evoked firing of putative PV+ CA1 interneurons; assay type: cell-based, rat; conditions: 300 nM; n = 4; p = 0.0275
hM2 = molecular target: T3, hM2 (Homo sapiens, UniProt P08172); assay: GloSensor cAMP functional assay, HEK293 cells stably expressing hM2; assay type: cell-based
T3 sequence (P08172 1-466): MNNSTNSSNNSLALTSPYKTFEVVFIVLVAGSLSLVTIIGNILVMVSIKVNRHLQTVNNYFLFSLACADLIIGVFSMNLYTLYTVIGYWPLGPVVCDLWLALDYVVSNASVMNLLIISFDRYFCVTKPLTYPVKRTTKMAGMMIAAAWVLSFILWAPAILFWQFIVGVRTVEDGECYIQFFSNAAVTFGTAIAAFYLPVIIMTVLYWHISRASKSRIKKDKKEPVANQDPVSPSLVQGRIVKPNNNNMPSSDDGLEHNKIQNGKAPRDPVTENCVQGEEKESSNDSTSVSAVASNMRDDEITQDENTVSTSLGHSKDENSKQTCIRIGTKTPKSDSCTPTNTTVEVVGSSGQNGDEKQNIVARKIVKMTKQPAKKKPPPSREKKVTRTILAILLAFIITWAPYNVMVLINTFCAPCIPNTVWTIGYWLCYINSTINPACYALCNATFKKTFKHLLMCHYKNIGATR

rat M4 receptor = conditions: ref Chan et al., 2008; cited from earlier work
[6] = molecular target: beta‐2 adrenergic receptors (Homo sapiens, UniProt P07550); assay: Nonmuscarinic off-target functional activity: beta-2 adrenergic antagonism; assay type: cell-based
hM3 = hM3 (Homo sapiens, UniProt P20309); assay: FLIPR Ca2+ functional assay, CHO K1 cells stably expressing hM3; assay type: cell-based
hM5 = molecular target: T4, hM5 (Homo sapiens, UniProt P08912); assay: FLIPR Ca2+ functional assay, CHO K1 cells stably expressing hM5; assay type: cell-based
T4 sequence (P08912 1-532): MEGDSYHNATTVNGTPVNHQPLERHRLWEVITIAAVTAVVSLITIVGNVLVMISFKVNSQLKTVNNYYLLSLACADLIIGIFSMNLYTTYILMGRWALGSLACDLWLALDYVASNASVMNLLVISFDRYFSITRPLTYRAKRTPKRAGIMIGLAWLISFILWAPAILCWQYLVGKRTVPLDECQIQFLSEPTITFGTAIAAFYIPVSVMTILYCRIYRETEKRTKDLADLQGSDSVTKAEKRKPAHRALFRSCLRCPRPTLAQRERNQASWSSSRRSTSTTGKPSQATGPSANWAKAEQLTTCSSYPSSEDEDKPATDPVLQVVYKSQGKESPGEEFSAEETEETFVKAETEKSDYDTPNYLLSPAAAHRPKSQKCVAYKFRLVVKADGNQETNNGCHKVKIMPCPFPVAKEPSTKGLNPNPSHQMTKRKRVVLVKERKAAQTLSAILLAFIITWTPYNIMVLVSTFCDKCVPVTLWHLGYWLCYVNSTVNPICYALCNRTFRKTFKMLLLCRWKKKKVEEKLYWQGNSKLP

rat M4 receptor (rM4) = molecular target: T5, rat M4 receptor (rM4) (Rattus norvegicus, UniProt P08485); assay: GloSensor cAMP functional assay, HEK293 cells stably expressing rM4
T5 sequence (P08485 1-478): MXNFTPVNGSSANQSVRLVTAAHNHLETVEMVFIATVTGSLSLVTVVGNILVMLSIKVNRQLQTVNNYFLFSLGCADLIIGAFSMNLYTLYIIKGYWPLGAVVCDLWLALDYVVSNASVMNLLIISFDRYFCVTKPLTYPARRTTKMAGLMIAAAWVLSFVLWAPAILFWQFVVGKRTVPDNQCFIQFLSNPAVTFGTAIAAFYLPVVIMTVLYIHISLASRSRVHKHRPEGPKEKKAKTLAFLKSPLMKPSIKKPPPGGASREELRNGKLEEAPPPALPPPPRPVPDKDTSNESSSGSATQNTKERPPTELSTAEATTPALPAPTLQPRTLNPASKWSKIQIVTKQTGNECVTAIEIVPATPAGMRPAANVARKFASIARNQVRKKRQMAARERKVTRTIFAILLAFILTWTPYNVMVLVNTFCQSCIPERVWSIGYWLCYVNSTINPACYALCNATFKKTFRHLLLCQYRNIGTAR

5HT2b receptors = 5HT2b receptors (Homo sapiens, UniProt P41595); assay: Nonmuscarinic off-target functional activity: 5HT2b antagonism; assay type: cell-based
[7] = 5 μM, end of recordings with PT‐3763, mean ± SEM

Sequence of hM3 (P20309 whole entry): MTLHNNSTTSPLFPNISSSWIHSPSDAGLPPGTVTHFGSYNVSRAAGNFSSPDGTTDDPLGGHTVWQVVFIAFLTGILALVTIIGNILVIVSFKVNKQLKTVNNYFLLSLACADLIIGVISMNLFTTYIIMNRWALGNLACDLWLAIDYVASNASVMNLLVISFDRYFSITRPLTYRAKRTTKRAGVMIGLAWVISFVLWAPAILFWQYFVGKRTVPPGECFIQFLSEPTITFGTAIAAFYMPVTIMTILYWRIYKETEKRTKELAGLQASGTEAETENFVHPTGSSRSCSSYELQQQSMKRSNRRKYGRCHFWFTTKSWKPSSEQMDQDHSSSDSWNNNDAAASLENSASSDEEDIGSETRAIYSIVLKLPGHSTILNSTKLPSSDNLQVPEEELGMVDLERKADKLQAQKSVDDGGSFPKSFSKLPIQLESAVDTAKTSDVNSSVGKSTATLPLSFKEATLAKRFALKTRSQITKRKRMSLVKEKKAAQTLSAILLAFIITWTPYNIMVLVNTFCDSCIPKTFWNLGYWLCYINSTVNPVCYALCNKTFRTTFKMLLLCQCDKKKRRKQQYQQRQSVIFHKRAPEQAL
Sequence of 5HT2b receptors (P41595 whole entry): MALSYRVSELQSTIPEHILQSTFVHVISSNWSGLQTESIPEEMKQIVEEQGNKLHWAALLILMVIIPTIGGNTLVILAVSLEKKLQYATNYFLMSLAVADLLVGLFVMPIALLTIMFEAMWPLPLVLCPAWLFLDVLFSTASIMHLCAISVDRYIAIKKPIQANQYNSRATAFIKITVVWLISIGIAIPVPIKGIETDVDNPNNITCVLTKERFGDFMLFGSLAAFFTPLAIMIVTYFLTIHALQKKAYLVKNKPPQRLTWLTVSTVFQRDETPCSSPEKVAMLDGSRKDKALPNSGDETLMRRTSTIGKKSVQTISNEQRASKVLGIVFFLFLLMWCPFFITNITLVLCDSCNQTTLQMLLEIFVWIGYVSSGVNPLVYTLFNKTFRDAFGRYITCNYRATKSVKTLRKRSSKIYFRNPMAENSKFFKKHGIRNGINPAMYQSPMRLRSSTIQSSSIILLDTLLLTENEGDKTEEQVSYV
Sequence of beta‐2 adrenergic receptors (P07550 whole entry): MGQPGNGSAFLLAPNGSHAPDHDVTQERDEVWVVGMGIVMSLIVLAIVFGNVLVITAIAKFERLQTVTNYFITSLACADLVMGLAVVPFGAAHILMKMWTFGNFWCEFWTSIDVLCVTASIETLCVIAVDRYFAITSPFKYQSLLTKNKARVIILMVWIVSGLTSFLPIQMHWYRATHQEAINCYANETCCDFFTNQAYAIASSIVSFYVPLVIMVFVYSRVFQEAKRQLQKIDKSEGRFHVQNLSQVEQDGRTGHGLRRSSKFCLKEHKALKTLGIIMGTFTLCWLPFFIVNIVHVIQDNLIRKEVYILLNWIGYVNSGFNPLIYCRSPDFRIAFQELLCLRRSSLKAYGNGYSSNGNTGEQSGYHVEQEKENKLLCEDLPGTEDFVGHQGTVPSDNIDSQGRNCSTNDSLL

Cc1nnc2sc(C(=O)NC3CN(c4cccnc4)C3)c(N)c2c1C [PT‐1148, 5‐amino‐3,4‐dimethyl‐N‐(1‐(pyridin‐3‐yl)azetidin‐3‐yl)thieno[2,3‐c]pyridazine‐6‐carboxamide]
selectivity for hM4 over hM2 (fold shift of PAM EC50) (hM4): 536 fold
upper z‐score asymptote of normalized spontaneous firing rates ([1]; in the presence of 20 nM oxotremorine and 1 μM VU0255035, not significant (p = 0.875)): 3.77 ± 23.9

CN1CCN(CC(=O)N2c3ccccc3C(=O)Nc3cccnc32)CC1 [pirenzepine]
effect on M4 PAM induced reduction of SC‐evoked EPSC amplitude and slope ([2]; 3 μM, applied after PTX + OXO + M4 PAM): reversed
effect on GSK1034702 induced increase in evoked spikes (CA1 pyramidal neurons; 3 μM): reversed
effect on GSK1034702 induced reduction of spike frequency accommodation (CA1 pyramidal neurons; 3 μM): similarly reversed
effect on GSK1034702 induced increase in CA1 firing rates ([1]; 3 μM): reversed

O=C1CCCN1CC#CCN1CCCC1 [oxotremorine]
upper z‐score asymptote of normalized spontaneous firing rates ([1]; compound alone, mean ± SEM): 108.2 ± 6.3
EC20 of oxotremorine for reduction of SC‐evoked field potentials [3]: 0.02 µM

N#Cc1cc2[nH]c(=O)c(=O)[nH]c2cc1[N+](=O)[O-] [CNQX]
CNQX‐induced suppression of SC‐evoked responses [2, 7]: 85.2 ± 4.1%
CNQX‐induced suppression of TA‐evoked responses [4, 7]: 79.4 ± 4.8%

Cc1cc(F)c2[nH]c(=O)n(C3CCN(C4CCOCC4)CC3)c2c1 [GSK1034702]
pEC50 (hM1): 7.57
effect on amplitude, slope, or PPR of EPSCs evoked by SC stimulation ([2]; 300 nM, 100 μM picrotoxin): no significant effect
effect on amplitude, slope, or PPR of EPSCs evoked by TA stimulation ([4]; 300 nM, 100 μM picrotoxin): no significant effect
spike frequency accommodation (CA1 pyramidal neurons; 300 nM, 200 pA current injection): significantly reduced
number of spikes evoked in response to a 200 pA injected current step (CA1 pyramidal neurons; 300 nM, p = 0.012 vs baseline): increase
firing rates of interneurons following current step [5]: increased firing rates
pEC50 (hM4): 5.85
upper z‐score asymptote of normalized spontaneous firing rates ([1]; GSK1034702 data set with VU0255035 reversal): 56.3 ± 11.9
upper z‐score asymptote of normalized spontaneous firing rates ([1]; GSK1034702 data set with pirenzipine reversal): 86.9 ± 13.6

COc1nc2sc(C(=O)NC3CC3)c(N)c2c(C)c1Cl [LY2033298]
pEC50 (hM2; hM2, PAM mode, in the presence of an EC20 of ACh (3 nM), isoproterenol 50 nM, brackets 95% CI): 5.48
potency at the rat M4 receptor compared with the human (rat M4 receptor): much weaker
pEC50 (hM4; hM4, PAM mode, in the presence of an EC20 of ACh (15 nM), isoproterenol 50 nM, brackets 95% CI): 7.39

Cc1cc(C)c2c(N)c(C(=O)NC3CN(c4cccnc4)C3)sc2n1 [PT‐3763, 3‐amino‐4,6‐dimethyl‐N‐(1‐(pyridin‐3‐yl)azetidin‐3‐yl)thieno[2,3‐b]pyridine‐2‐carboxamide]
pIC50 [6]: 5.52
selectivity for hM4 over hM2 (fold shift of PAM EC50) (hM4): 28 fold

O=C(CCNS(=O)(=O)c1cccc2nsnc12)N1CCN(c2ccncc2)CC1 [VU0255035]
effect on GSK1034702 induced increase in CA1 firing rates ([1]; 3 μM): reversed
effect on oxotremorine induced increase in spontaneous firing rates ([1]; 3 μM): partially reversed

CC(=O)OCC[N+](C)(C)C [ACh, acetylcholine]
ACh EC20 (hM3; hM3 cell line): 0.0008 µM
ACh EC20 (hM5; hM5 cell line): 0.002 µM
ACh EC20 (hM4; hM4 cell line): 0.015 µM
ACh EC20 (rat M4 receptor (rM4); rM4 cell line): 0.0008 µM

CCOC(=O)N1CCCC(N2CCC(c3cccnc3OC)CC2)CC1 (stereo not shown) [PT‐6950, ethyl 4‐(4‐(2‐methoxypyridin‐3‐yl)piperidin‐1‐yl)azepane‐1‐carboxylate]
pEC50 (hM1): 6.51
pEC50 (hM2): 5.54
pEC50 (hM3): < 5.00
pEC50 (hM5): < 5.00
pIC50 (5HT2b receptors): 5.90
pEC50 (rat M4 receptor (rM4)): 8.58
upper z‐score asymptote of normalized spontaneous firing rates ([1]; compound alone, mean ± SEM): 12.0 ± 16.7
